Legend:
nitric oxide (NO) = assay: Involvement of nitric oxide, NG-methyl-L-arginine (NMLA) as blocking agent; details: 4 μl of NMLA (1 mol) added; compared to Yoshixol alone
Method: Recent interest has been focused recently in effects of nitric oxide (NO) which is generated in body. Such effects are anticancer effect, bactericidal effect, inhibitory effect of antigen-antibody reaction and cardiovascular effect. […] When 4 μl of NMLA (1 mol) was added in the each test sample with and without Yoshixol, blood aggregation effect, effect of fibrin formation and bactericidal effect of Yoshixol were decreased by 10-20% comparing to effect of Yoshixol alone.

[1] = test system: rejected reaction on heterogeneous skin implantation; assay: Heterogeneous skin implantation, donor skin pretreated with Yoshixol solution; format: in vivo, rabbit and dog
Description: Changes in transplanted skin for 3 months were observed by macroscopically and microscopically, when a piece of skin with entire layer (diameter 3 centimeter meter) at a region of the back of rabbit was transplanted to the region of the back of adult mongrel dog as the entire layer transplantation, and when a piece of skin with entire layer (diameter 3 centimeter meter) at a region of the back of adult mongrel dog was transplanted to the region of the back of rabbit as the entire layer transplantation. Firstly, each piece of skin from rabbit or dog was treated with 5 ml of physiological saline with 10 μl of the test solution for 2 minutes so that each skin piece was transplanted to each recipient by the surgical suture. Two kinds of the test solution were prepared for the above treatment; as control solution, basal solution consists of 2 ml of polyoxyethylene (20) sorbitan monoolate 1 (Wakou Jyunyaku Co.) which is identical to Tween 80 (ICI Ltd.) and 88 ml of physiological saline, and as treated solution, 10 ml of Yoshixol was added in the basal solution. And, 10 μl of Yoshixol was treated directly on the transplanted wound for 3 days after implantation. […] Then, implantated wound of the recipient was cured with a self regenerated skin of each recipient after 3 months. On the other hand, when a piece of transplanted skin is dipped in the Yoshixol solution, the treated skin became to be soft and increases in it's thickness. And, a suture procedure with surgical needle was easily done. […] So that an inflammatory tissue reaction was not also found after 1 month. […] Simultaneously with the above, Yoshixol can inhibit complications of infections on the donor tissues or organs, and can improve an implantation effect. Moreover, by using an entire layer (diameter 3 centimeter meter) of rabbit skin, changes in a piece of the transplanted skin which was sutured to the back of the dog as the recipient were investigated over 3 months after the implantation. […] An outer layer of the transplanted skin was faded 3 month after the implantation likely as to strip a thin membrane.

human fibrinogen = molecular target: T1, human fibrinogen (Homo sapiens, UniProt P02671+P02675+P02679); assay: Composition of amino acids in fibrinogen; format: biochemical; details: Yoshixol 4 μl
T1 sequence (P02671 20-629 limits assumed): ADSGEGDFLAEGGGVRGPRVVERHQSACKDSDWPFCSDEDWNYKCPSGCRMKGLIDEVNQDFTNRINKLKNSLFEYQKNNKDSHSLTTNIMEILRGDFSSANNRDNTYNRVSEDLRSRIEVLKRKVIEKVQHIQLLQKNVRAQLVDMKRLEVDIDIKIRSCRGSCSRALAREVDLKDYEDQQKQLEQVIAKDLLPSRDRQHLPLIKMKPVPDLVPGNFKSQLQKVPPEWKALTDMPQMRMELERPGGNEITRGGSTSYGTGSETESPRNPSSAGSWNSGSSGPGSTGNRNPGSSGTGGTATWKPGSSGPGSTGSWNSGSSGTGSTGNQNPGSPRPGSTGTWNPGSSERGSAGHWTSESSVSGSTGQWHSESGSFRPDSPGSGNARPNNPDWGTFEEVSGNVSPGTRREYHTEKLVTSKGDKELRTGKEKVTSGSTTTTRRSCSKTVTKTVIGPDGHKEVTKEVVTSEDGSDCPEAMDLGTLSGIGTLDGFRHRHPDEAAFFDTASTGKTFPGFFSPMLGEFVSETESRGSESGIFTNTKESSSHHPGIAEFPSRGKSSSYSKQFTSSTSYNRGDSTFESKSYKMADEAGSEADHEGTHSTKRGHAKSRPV
T1 sequence (P02675 31-491): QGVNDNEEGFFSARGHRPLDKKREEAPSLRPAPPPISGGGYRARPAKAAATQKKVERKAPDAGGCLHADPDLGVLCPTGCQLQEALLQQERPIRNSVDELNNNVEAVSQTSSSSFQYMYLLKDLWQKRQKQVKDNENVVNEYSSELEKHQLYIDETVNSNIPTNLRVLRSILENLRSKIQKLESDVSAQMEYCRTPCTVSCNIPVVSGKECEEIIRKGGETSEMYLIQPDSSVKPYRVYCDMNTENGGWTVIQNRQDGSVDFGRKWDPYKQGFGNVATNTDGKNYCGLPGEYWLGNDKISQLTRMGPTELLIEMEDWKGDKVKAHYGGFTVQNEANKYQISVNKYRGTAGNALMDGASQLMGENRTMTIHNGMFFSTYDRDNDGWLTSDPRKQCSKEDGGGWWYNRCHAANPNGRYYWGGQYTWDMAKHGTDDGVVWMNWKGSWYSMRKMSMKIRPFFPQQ
T1 sequence (P02679 27-433 limits assumed): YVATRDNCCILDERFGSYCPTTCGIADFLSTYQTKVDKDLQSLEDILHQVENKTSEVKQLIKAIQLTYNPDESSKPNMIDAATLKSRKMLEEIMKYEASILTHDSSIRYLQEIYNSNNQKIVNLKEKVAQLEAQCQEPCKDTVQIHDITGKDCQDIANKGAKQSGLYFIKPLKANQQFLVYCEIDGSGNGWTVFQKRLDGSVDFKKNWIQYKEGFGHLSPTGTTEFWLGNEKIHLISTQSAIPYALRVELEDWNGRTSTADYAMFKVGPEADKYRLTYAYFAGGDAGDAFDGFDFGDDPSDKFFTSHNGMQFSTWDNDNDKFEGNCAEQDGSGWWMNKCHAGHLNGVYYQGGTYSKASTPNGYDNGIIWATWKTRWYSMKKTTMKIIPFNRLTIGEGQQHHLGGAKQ
Method: Changes in composition of amino acids were analyzed by use of 1 ml of human blood serum, 1 ml of human fibrinogen (concentration of 160 mg/dl), 1 ml of human thrombin before and after treatment with Yoshixol (4 μl). The total amino acids in the human blood serum which was treated with Yoshixol decreased by 41%. And, ratio of each composition was altered after the treatment so that as an example the concentration of phosphoserine increased about 20 times which level was from 7.2 picomole to 164.8 picomole.

C=C1CC(C)(C)C=CC1=O [Yoshixol, 4,4-dimethyl-6-methylene-2-cyclohexen-1-one]
decrease of blood aggregation effect, effect of fibrin formation and bactericidal effect of Yoshixol (nitric oxide (NO)): 10-20%
desquamation and deciduation of transplanted skin ([1]; skin dipped 2 minutes in Yoshixol solution, 10 μl on wound for 3 days, 2 weeks after implantation): did not show a desquamation and deciduation
inflammation reaction of transplanted skin ([1]; skin dipped in Yoshixol solution, 10 μl on wound for 3 days): inhibited
transplanted wound ([1]; skin dipped in Yoshixol solution, after 1 month): cured to a level which could not find a boundary with a skin of recipient
concentration of the total amino acids in fibrinogen (human fibrinogen; 1 ml human fibrinogen 160 mg/dl): did not change
increase of concentration of cystathione in fibrinogen (human fibrinogen): more than 5 times
glutamic acid and hydroxyl serine in fibrinogen (human fibrinogen; existed before treatment): disappeared

Reference: patent publication US6710090B2, “Inhibitory or blocking agents of molecular generating and/or inducing functions” (priority 1994, dated 2004)
